Assays:
[1] = molecular target: T1, c-Met (phospho-c-Met) in HT29 cells (Homo sapiens, UniProt P08581); experiment: c-Met Cellular Activity/Autophosphorylation Assay, HT29 cells; type: cell-based; settings: for inhibition at 1 µM: HT-29, 1 μM compound, read-out: c-Met autophosphorylation inhibition score, HT29 Cells (1 μM); for inhibition at 3 µM: HT-29, 3 μM compound, read-out: c-Met autophosphorylation inhibition score, HT29 Cells (3 μM)
T1 construct: endogenous in cells; host or cells: HT29, A549 (HGF-stimulated), GTL-16
Description: (§1) HT29 and GTL-16 cells were serum starved for one hour in media containing 0.05% BSA and varying concentrations of Example compounds (1-10 μM). A549 cells were serum starved overnight in media containing 0.05% BSA then treated for one hour with Example compounds followed by a 15 minute stimulation with 50 ng/mL HGF (Peprotech, Rocky Hill, N.J.), respectively. Samples were resolved by electrophoresis on a 3-8% Tris-Acetate gel (40 ma/gel) and then transferred to a nitrocellulose membrane. Membranes were blocked for one hour at room temperature in Odyssey Blocking Buffer (Licor #927-40000) diluted 1:1 with 1×TBS. Membranes were then co-incubated overnight at 4° C. with primary antibodies [total Met (Cell Signaling, #3127) and Phospho-Met (Biosource, #44-888G) 1:1000 each in Odyssey Blocking Buffer diluted 1:1 with 1×TBS-T 0.05%]. The next day, membranes were washed and co-incubated with secondary antibodies [Goat anti mouse IRDye800 (Rockland, #610-132-121) and Goat anti rabbit Alexa fluor 700 (Molecular Probes, #A21038) 1:10,000] in Odyssey Blocking Buffer diluted 1:1 with 1×TBS-T 0.05% for one hour at room temperature protected from light. Blots were then washed and read on the Odyssey Infrared Imager. Total c-Met signal was visualized at 800 nm detection and phospho-c-Met signal was visualized at 700 nm detection.

[2] = molecular target: T2, c-Met (cytoplasmic domain) (Homo sapiens, UniProt P08581); experiment: c-Met Kinase Assay (ELISA/TRF, PLC-γ substrate); type: biochemical; settings: 3 μM ATP (Km level); read-out: c-Met Kinase Inhibition (IC50)
T2 construct: Reactions were initiated with 30 ng/mL c-Met (cytoplasmic domain, Invitrogen Corporation #PV3143); purchased Invitrogen Corporation PV3143
In short: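 Readout is TRF of europium anti-phosphotyrosine (PT66) bound to GST–PLC-γ substrate coated at 10 μg/mL, after a 15 min, 37 °C reaction started with 30 ng/mL c-Met cytoplasmic domain. Percent inhibition plotted against log compound concentration and fitted (variable slope) for IC50.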

[3] = molecular target: baculovirus-expressed ALK (Homo sapiens, UniProt Q9UM73); experiment: ALK Kinase Assay (ELISA/TRF, PLC-γ substrate); type: biochemical; settings: read-out: ALK Kinase Inhibition (IC50); note: 1 µM ATP (Km level)
In short: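 IC50 values fitted by nonlinear sigmoidal regression (variable slope) of percent inhibition against log compound concentration. Read-out was TRF of Eu-N1 anti-phosphotyrosine antibody bound to phosphorylated, plate-coated GST-PLC-γ (10 µg/mL). Kinase reaction used ALK at 30 ng/ml for 15 min at 37 °C.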

[4] = molecular target: T3, c-Met (phospho-c-Met) in A549 cells (Homo sapiens, UniProt P08581); experiment: c-Met Cellular Activity/Autophosphorylation Assay, A549 cells (HGF stimulated); type: cell-based; settings: 50 ng/mL HGF; for inhibition at 1 µM: 1 μM compound, read-out: c-Met autophosphorylation inhibition score, A549 Cells (1 μM); for inhibition at 3 µM: 3 μM compound, read-out: c-Met autophosphorylation inhibition score, A549 Cells (3 μM)
T3 construct: endogenous in cells; host or cells: HT29, A549 (HGF-stimulated), GTL-16
Description: as §1

T3 sequence (P08581 25-1390): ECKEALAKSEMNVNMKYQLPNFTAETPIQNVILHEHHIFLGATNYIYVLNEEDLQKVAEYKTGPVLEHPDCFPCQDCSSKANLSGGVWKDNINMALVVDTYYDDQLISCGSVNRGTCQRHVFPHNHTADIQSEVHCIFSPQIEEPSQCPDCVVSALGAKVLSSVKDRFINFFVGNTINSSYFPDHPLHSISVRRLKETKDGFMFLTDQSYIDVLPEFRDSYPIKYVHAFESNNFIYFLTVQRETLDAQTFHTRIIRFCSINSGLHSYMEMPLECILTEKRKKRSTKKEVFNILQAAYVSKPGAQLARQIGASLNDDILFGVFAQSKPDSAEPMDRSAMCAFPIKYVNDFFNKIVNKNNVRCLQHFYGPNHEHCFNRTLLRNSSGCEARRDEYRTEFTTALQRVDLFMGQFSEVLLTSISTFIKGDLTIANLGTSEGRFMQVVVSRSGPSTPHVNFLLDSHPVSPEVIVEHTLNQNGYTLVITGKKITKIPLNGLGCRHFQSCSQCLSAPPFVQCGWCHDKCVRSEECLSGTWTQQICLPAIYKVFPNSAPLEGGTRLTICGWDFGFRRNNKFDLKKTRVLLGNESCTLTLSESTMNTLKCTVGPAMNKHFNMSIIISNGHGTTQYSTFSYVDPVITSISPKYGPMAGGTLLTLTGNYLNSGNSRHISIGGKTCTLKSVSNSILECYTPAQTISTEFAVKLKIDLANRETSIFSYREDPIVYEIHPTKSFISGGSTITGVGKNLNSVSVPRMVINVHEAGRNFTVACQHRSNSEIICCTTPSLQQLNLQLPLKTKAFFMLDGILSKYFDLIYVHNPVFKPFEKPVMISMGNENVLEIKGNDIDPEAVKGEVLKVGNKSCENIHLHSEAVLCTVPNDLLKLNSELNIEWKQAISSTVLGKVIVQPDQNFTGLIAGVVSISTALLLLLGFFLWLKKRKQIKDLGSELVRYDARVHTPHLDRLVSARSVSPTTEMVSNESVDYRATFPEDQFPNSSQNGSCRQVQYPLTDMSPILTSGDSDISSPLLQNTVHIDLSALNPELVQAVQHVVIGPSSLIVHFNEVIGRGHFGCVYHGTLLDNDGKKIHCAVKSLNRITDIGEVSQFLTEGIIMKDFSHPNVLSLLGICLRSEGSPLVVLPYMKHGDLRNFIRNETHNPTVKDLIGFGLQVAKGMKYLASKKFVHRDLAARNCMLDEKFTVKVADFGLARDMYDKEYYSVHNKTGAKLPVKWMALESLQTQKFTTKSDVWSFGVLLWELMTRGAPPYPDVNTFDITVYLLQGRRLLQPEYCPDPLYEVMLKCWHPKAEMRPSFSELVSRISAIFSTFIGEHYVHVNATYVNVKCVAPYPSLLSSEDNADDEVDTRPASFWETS
T1 sequence (P08581 25-1390): as above
T2 sequence (P08581 956-1390 limits assumed): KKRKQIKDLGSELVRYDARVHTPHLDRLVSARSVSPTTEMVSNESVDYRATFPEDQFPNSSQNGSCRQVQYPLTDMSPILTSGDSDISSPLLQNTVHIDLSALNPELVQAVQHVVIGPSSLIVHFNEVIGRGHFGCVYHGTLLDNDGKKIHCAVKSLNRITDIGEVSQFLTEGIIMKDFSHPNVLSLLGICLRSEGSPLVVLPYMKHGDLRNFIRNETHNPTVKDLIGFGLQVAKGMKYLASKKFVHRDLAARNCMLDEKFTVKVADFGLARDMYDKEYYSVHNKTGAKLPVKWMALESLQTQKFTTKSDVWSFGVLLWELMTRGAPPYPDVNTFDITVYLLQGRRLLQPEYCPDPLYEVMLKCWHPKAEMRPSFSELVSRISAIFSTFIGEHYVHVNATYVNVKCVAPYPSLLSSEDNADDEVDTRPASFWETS
Chain of baculovirus-expressed ALK (Q9UM73 19-1620): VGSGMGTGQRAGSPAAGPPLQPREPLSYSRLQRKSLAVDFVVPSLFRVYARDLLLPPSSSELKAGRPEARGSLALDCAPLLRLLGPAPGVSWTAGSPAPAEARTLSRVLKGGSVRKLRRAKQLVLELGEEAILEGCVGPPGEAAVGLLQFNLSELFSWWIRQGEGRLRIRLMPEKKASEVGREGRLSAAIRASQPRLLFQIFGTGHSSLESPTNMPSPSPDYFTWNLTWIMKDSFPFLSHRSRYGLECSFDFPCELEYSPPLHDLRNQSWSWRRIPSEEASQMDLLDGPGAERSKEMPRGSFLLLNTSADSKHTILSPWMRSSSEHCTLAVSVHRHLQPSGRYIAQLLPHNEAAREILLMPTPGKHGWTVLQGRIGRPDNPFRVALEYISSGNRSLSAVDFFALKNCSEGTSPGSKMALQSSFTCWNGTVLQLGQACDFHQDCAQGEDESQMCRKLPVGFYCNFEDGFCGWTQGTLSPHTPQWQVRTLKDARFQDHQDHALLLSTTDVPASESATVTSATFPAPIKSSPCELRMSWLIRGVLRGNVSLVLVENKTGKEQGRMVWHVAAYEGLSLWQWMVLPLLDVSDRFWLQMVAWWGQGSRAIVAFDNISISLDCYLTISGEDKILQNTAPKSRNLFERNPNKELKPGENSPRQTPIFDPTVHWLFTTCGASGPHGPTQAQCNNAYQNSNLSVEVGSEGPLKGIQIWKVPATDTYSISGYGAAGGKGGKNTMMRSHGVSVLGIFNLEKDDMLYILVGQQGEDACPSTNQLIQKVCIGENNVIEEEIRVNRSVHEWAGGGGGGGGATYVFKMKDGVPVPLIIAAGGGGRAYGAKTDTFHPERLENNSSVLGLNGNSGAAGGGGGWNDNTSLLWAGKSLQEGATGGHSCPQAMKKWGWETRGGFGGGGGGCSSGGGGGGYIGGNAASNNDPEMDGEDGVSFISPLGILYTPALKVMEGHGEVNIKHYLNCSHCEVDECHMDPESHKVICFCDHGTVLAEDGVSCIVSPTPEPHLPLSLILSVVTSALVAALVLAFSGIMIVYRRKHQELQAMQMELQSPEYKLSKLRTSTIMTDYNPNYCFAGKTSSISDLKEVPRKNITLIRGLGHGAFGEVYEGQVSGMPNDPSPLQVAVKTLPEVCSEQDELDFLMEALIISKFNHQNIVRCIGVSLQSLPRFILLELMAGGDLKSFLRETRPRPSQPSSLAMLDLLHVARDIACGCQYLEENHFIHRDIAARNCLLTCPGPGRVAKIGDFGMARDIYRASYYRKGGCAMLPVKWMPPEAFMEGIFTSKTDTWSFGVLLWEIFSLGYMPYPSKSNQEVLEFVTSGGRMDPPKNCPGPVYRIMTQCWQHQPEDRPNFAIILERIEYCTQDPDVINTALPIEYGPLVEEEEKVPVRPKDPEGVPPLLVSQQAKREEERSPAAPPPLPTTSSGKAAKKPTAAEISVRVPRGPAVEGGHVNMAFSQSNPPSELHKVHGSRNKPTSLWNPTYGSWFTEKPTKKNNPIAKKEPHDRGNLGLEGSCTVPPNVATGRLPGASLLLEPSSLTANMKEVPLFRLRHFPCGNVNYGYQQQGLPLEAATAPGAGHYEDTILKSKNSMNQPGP

`CN1CCN(c2ccc(-c3cnc4c(c3)N(S(=O)(=O)c3cc(F)ccc3F)CCN4)cn2)CC1` [Example 122, 1-(2,5-Difluorobenzenesulfonyl)-7-[6-(4-methylpiperazin-1-yl)pyridin-3-yl]-1,2,3,4-tetrahydropyrido[2,3-b]pyrazine] showed an inhibition at 1 µM [1] of 26 to 50%, an inhibition at 3 µM [1] of 26 to 50% and an IC50 [2] of 1 to 10 µM. For the same compound, the IC50 [3] was 0.1 to 1 µM, the inhibition at 1 µM [4] was 0 to 25% and the inhibition at 3 µM [4] was 26 to 50%.
Work on `O=C(c1ccc(-c2cnc3c(c2)N(Cc2cc(Cl)ccc2C(F)(F)F)CCN3)cc1)N1CCC(N2CCOCC2)CC1` [Example 287, (4-{1-[5-Chloro-2-(trifluoromethyl)benzyl]-1,2,3,4-tetrahydropyrido[2,3-b]pyrazin-7-yl}phenyl)-(4-morpholin-4-yl-piperidin-1-yl)methanone] yielded an inhibition at 1 µM [1] of 0 to 25%, an inhibition at 3 µM [1] of 26 to 50% and an IC50 [2] of 0.1 to 1 µM. It also gave an IC50 [3] of under 0.1 µM, an inhibition at 1 µM [4] of 0 to 25% and an inhibition at 3 µM [4] of 0 to 25%.
Work on `CN1CCN(c2ccc(-c3cnc4c(c3)N(Cc3cc(C(F)(F)F)ccc3Cl)CCN4)cn2)CC1` [Example 120, 1-(2-Chloro-5-trifluoromethylbenzyl)-7-[6-(4-methylpiperazin-1-yl)pyridin-3-yl]-1,2,3,4-tetrahydropyrido[2,3-b]pyrazine] yielded an inhibition at 1 µM [1] of 26 to 50%, an inhibition at 3 µM [1] of 26 to 50% and an IC50 [2] of 1 to 10 µM. It also gave an IC50 [3] of 0.1 to 1 µM, an inhibition at 1 µM [4] of 0 to 25% and an inhibition at 3 µM [4] of 26 to 50%.
In the case of `Nc1ccc(-c2cnc3c(c2)N(Cc2c(F)ccc(F)c2Cl)CCN3)cn1` [Example 184, 5-[1-(2-Chloro-3,6-difluorobenzyl)-1,2,3,4-tetrahydropyrido[2,3-b]pyrazin-7-yl]-pyridin-2-ylamine], the inhibition at 1 µM [1] is reported as 51 to 75%, the inhibition at 3 µM [1] is reported as 76 to 100% and the IC50 [2] is reported as 1 to 10 µM. It also gave an IC50 [3] of under 0.1 µM and a melting point of over 200 °C.
`CC(C)(C)OC(=O)NCC#Cc1cnc2c(c1)N(Cc1cc(Cl)ccc1Cl)CCN2` [Example 168, {3-[1-(2,5-Dichlorobenzyl)-1,2,3,4-tetrahydropyrido[2,3-b]pyrazin-7-yl]prop-2-ynyl}carbamic acid tert-butyl ester] showed an inhibition at 1 µM [1] of 0 to 25%, an inhibition at 3 µM [1] of 26 to 50% and an IC50 [2] of 10 to 100 µM. For the same compound, the IC50 [3] was 1 to 10 µM, the inhibition at 1 µM [4] was 0 to 25% and the inhibition at 3 µM [4] was 0 to 25%.
For `CN1CCN(c2ccc(-c3cnc4c(c3)N(Cc3cc(Cl)ccc3C(F)(F)F)CCN4)cn2)CC1` [Example 118, 1-(5-Chloro-2-trifluoromethylbenzyl)-7-[6-(4-methylpiperazin-1-yl)pyridin-3-yl]-1,2,3,4-tetrahydropyrido[2,3-b]pyrazine], the inhibition at 1 µM [1] was 26 to 50%, the inhibition at 3 µM [1] was 51 to 75% and the inhibition at 1 µM [4] was 0 to 25%. For the same compound, the inhibition at 3 µM [4] was 26 to 50%.
For `O=C(O)c1ccc(-c2cnc3c(c2)N(Cc2cc(F)ccc2F)CCN3)cc1` [Example 64, 4-[1-(2,5-Difluorobenzyl)-1,2,3,4-tetrahydropyrido[2,3-b]pyrazin-7-yl]benzoic acid], the IC50 [2] was 10 to 100 µM, the IC50 [3] was 0.1 to 1 µM and the melting point was over 300 °C.
With `CC1(C)CN(Cc2cc(F)ccc2F)c2cc(-c3ccc(C(=O)N4CCC[C@H]4CN4CCCC4)cc3)cnc2N1` [Example 96, {4-[1-(2,5-Difluorobenzyl)-3,3-dimethyl-1,2,3,4-tetrahydropyrido[2,3-b]pyrazin-7-yl]phenyl}-((S)-2-((pyrrolidin-1-yl)methyl)pyrrolidin-1-yl)methanone] the IC50 [2] was 10 to 100 µM, the IC50 [3] was 1 to 10 µM and the melting point was 74 to 77 °C.
`O=C1CNc2ncc(-c3ccc(NS(=O)(=O)CCN4CCOCC4)cc3)cc2N1Cc1cc(F)ccc1F` [Example 50, 2-Morpholin-4-yl-ethanesulfonic acid{4-[1-(2,5-difluorobenzyl)-2-oxo-1,2,3,4-tetrahydropyrido[2,3-b]pyrazin-7-yl]phenyl}-amide] showed an IC50 [2] of over 100 µM, an IC50 [3] of 0.1 to 1 µM and a melting point of 225 °C.
With `CC1(C)Nc2ncc(I)cc2N(Cc2cc(F)ccc2F)C1=O` [Example 92, 1-(2,5-Difluorobenzyl)-7-iodo-3,3-dimethyl-3,4-dihydro-1H-pyrido[2,3-b]pyrazin-2-one] the IC50 [2] was over 100 µM, the IC50 [3] was over 100 µM and the melting point was 198 to 201 °C.
`CN(C)CCCNC(=O)c1ccc(-c2cnc3c(c2)N(C(=O)c2ccccc2)CCN3)cc1` [Example 53, 4-(1-Benzoyl-1,2,3,4-tetrahydropyrido[2,3-b]pyrazin-7-yl)-N-(3-dimethylamino-propyl)benzamide] showed an IC50 [2] of 10 to 100 µM, an IC50 [3] of over 100 µM and a melting point of 94 °C.
With `OC1CCNc2nc(Br)ccc21` (stereo not shown) [Example 267, 7-bromo-1,2,3,4-tetrahydro-[1,8]naphthyridin-4-ol] the IC50 [2] was over 100 µM, the IC50 [3] was 10 to 100 µM and the melting point was 130 to 131 °C.
Work on `Cc1noc(C)c1-c1cnc2c(c1)N(Cc1c(F)ccc(F)c1Cl)CCN2` [Example 103, 1-(2-Chloro-3,6-difluorobenzyl)-7-(3,5-dimethyl-isoxazol-4-yl)-1,2,3,4-tetrahydropyrido[2,3-b]pyrazine] yielded an IC50 [2] of 10 to 100 µM, an IC50 [3] of 0.1 to 1 µM and a melting point of 215 to 216 °C.
For `O=C1CNc2ncc(I)cc2N1Cc1cccc(F)c1C(F)(F)F` [Example 178, 1-[3-Fluoro-2-(trifluoromethyl)benzyl]-7-iodo-3,4-dihydro-1H-pyrido[2,3-b]pyrazin-2-one], the IC50 [2] was 10 to 100 µM, the IC50 [3] was over 100 µM and the melting point was over 200 °C.
In the case of `O=C(O)CCNc1cccc(Br)n1` [Example 265, 3-(6-bromo-pyridin-2-ylamino)propionic acid], the IC50 [2] is reported as over 100 µM, the IC50 [3] is reported as over 100 µM and the melting point is reported as 108 to 109 °C.
In the case of `O=C1CNc2ncc(I)cc2N1Cc1cc(F)ccc1C(F)(F)F` [Example 133, 1-(5-Fluoro-2-trifluoromethylbenzyl)-7-iodo-3,4-dihydro-1H-pyrido[2,3-b]pyrazin-2-one], the IC50 [2] is reported as over 100 µM, the IC50 [3] is reported as over 100 µM and the melting point is reported as 244 to 245 °C.
With `O=C(c1ccccc1)N1CCNc2ncc(I)cc21` [Example 42, (7-Iodo-3,4-dihydro-2H-pyrido[2,3-b]pyrazin-1-yl)phenylmethanone] the IC50 [2] was over 100 µM, the IC50 [3] was over 100 µM and the melting point was 164 to 166 °C.
For `CN1CCN(C(=O)c2ccc(-c3cnc4c(c3)N(Cc3cc(F)ccc3F)CCN4)cc2)CC1` [Example 67, {4-[1-(2,5-Difluorobenzyl)-1,2,3,4-tetrahydropyrido[2,3-b]pyrazin-7-yl]phenyl}-(4-methylpiperazin-1-yl)methanone], the IC50 [2] was 1 to 10 µM, the IC50 [3] was 0.1 to 1 µM and the melting point was 180 °C.
`CCNC(=O)c1ccc(-c2cnc3c(c2)N(Cc2ccccc2)C(=O)CN3)cc1` [Example 27, 4-(1-Benzyl-2-oxo-1,2,3,4-tetrahydropyrido[2,3-b]pyrazin-7-yl)-N-ethyl-benzamide] showed an IC50 [2] of 10 to 100 µM, an IC50 [3] of 10 to 100 µM and a melting point of 195 °C.
Work on `CCOC(=O)c1cnc2c(c1)N(Cc1cc(F)ccc1F)CCN2` [Example 75, 1-(2,5-Difluorobenzyl)-1,2,3,4-tetrahydropyrido[2,3-b]pyrazine-7-carboxylic acid ethyl ester] yielded an IC50 [2] of 10 to 100 µM, an IC50 [3] of 0.1 to 1 µM and a melting point of 124 to 125 °C.
Work on `O=C1CNc2ncc(I)cc2N1Cc1c(F)ccc(F)c1Cl` [Example 3, 1-(2-Chloro-3,6-difluorobenzyl)-7-iodo-3,4-dihydro-1H-pyrido[2,3-b]pyrazin-2-one] yielded an IC50 [2] of over 100 µM, an IC50 [3] of 10 to 100 µM and a melting point of 237 °C.
`O=C(c1ccccc1)N1CCNc2ncccc21` [Example 41, (3,4-Dihydro-2H-pyrido[2,3-b]pyrazin-1-yl)phenylmethanone] gave an IC50 [2] of over 100 µM, an IC50 [3] of over 100 µM and a melting point of 166 to 168 °C.
Compound `CN1CCN(C(=O)c2ccc(-c3cnc4c(c3)N(Cc3c(F)ccc(F)c3Cl)CCN4)cc2)CC1` [Example 104, {4-[1-(2-Chloro-3,6-difluorobenzyl)-1,2,3,4-tetrahydropyrido[2,3-b]pyrazin-7-yl]phenyl}-(4-methylpiperazin-1-yl)methanone] has an inhibition at 1 µM [1] of 0 to 25%, an inhibition at 3 µM [1] of 51 to 75% and an IC50 [2] of 0.1 to 1 µM. It also gave an IC50 [3] of under 0.1 µM.

Reference: patent US7601716B2, “Pyridopyrazines and derivatives thereof as ALK and c-Met inhibitors” (Cephalon, Inc., priority 2006, dated 2009)
